These results are taken from patent US20240246954A1, “COMPOSITIONS AND METHODS FOR INHIBITING KRAS” (TheRas, Inc., priority 2021, published 2024).

Test [1] concerns the target T1, Avi-KRAS G12D (1-169) GppNHp/RAF1 RBD-3×FLAG (52-151) (Homo sapiens, UniProt P01116, G12D).
T1 construct: Avi-KRAS G12D (1-169) GppNHp
Nature of the test: HTRF Raf1-KRAS G12D-GppNHp disruption assay. The conditions noted are these: 1 h incubation. In kind it is biochemical. The gist of the method:
(§1)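 Compounds titrated from 100 μM in a 10-point series, incubated with protein mix 1 h at room temperature, then HTRF reagents a further 1 h. Time-resolved fluorescence read (excitation 320 nm, emission 615 nm); activity expressed as percentage of DMSO control.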
Background: Time-resolved FRET reads energy transfer from a long-lived donor to a nearby acceptor.

Test [2] addresses T2, Avi-KRAS G12D/Q25A (1-169) GppNHp/3×FLAG-PI3KCA (157-299) (Homo sapiens, UniProt P01116, G12D/Q25A).
T2 construct: Avi-KRAS G12D/Q25A (1-169) GppNHp
Nature of the test: HTRF PI3KCA-KRAS G12D/Q25A-GppNHp disruption assay. In kind it is biochemical. Particulars: 1 h incubation. The method in brief: as §1

T2 sequence (P01116 1-169 isoform P01116-2 G12D/Q25A limits assumed): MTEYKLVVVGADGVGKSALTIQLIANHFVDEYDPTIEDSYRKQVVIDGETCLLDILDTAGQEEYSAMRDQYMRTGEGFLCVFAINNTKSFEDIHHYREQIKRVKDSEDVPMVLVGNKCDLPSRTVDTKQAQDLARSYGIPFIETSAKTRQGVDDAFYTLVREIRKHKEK
T1 sequence (P01116 1-169 isoform P01116-2 G12D limits assumed): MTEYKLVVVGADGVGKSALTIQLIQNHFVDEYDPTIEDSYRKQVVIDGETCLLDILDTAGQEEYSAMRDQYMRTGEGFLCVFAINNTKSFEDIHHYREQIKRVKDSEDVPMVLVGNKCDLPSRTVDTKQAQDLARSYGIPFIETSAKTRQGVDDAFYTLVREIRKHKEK

In the case of `CN1CCC[C@H]1COc1nc(N2CCNCC2)c2cc(CC#N)c(-c3ccc(F)c4sc(N)nc34)c(F)c2n1` [Compound 175, 2-[7-(2-amino-7-fluoro-1,3-benzothiazol-4-yl)-8-fluoro-2-[[(2S)-1-methylpyrrolidin-2-yl]methoxy]-4-piperazin-1-yl-quinazolin-6-yl]acetonitrile], the IC50 – broadly, the concentration that inhibits the measured activity by half – fell in the range of 10 to 30 µM in test [1] and 1 to 10 µM in test [2].

With `Nc1nc2c(F)ccc(-c3c(-c4ccoc4)cc4c(NC5CNC5)nc(OCC56CCCN5CCC6)nc4c3F)c2s1` [Compound 113], the IC50 fell in the range of 0.1 to 1 µM in test [1] and 1 to 10 µM in test [2].

`Nc1nc2c(-c3c(C(F)(F)F)cc4c(N5CCNCC5)nc(OC[C@@]56CCCN5C[C@H](F)C6)nc4c3F)ccc(F)c2s1` [Compound 206]: the IC50 is 0.1 to 1 µM in test [1] and 1 to 10 µM in test [2].

In the case of `Nc1nc2c(-c3c(C(F)(F)F)cc4c(NC5CNC5)ncnc4c3F)ccc(F)c2s1` [Compound 88], the IC50 in test [1] and in test [2] was 10 to 30 µM throughout.

In the case of `CN(c1nc(OC[C@@H]2C[C@@H](F)CN2C)nc2c(F)c(-c3ccc(F)c4sc(N)nc34)c(-c3ccoc3)cc12)C1CN(C(=O)CN)C1` [Compound 150], the IC50 in test [1] and in test [2] was 10 to 30 µM each time.

`C[C@H]1CN(c2nc(OC[C@@H]3CCCN3C)nc3c(F)c(-c4ccc(F)c5sc(N)nc45)c(Cl)cc23)CCN1` [Compound 84]: the IC50 in test [1] and in test [2] was 10 to 30 µM each time.

With `CN1CCC[C@H]1COc1nc(N2CCNCC2)c2cc(-c3cnn(C)c3)c(-c3ccc(F)c4sc(N)nc34)c(F)c2n1` [Compound 176], the IC50 in test [1] and in test [2] was 10 to 30 µM throughout.

Regarding `CN(c1nc(OCC23CCCN2CCC3)nc2c(F)c(-c3ccc(F)c4sc(N)nc34)c(C(F)(F)F)cc12)[C@H]1C[C@@H]2CC[C@H]1N2` (atropisomer, axis not shown) [Compound 270], the concentration for half-maximal inhibition (IC50) in test [1] was 1 to 10 µM; in test [2], 10 to 30 µM.

For the compound `C[C@@H]1CN(c2nc(OC[C@]34CCCN3C[C@H](F)C4)nc3c(F)c(-c4ccc(F)c5sc(N)nc45)c(C(F)(F)F)cc23)C[C@H](C)N1` [Compound 215], the IC50 was in the range of 1 to 10 µM in test [1] and 10 to 30 µM in test [2].

Consider `C[C@@H]1CNCCN1c1nc(OC[C@]23CCCN2C[C@H](F)C3)nc2c(F)c(-c3ccc(F)c4sc(N)nc34)c(C(F)(F)F)cc12` [Compound 209], for which the IC50 in test [1] lay in the range of 0.1 to 1 µM; in test [2], 1 to 10 µM.

In the case of `Nc1nc2c(-c3c(OC(F)(F)F)cc4c(N5CC6CCC(C5)N6)nc(OCC56CCCN5CCC6)nc4c3F)ccc(F)c2s1` [Compound 231], the IC50 in test [1] and in test [2] was 1 to 10 µM each time.

Regarding `CN1C[C@H](F)C[C@H]1COc1nc(N2CCNCC2)c2cc(Cl)c(-c3ccc(F)c4sc(N)nc34)c(F)c2n1` [Compound 128], the 50% inhibitory concentration (IC50) in test [1] and in test [2] was 10 to 30 µM in each case.

Consider `CN1CCC[C@H]1COc1nc(N2CCNCC2)c2cc(C(F)F)c(-c3ccc(F)c4sc(N)nc34)c(F)c2n1` [Compound 217, 4-(6-(difluoromethyl)-8-fluoro-2-(((S)-1-methylpyrrolidin-2-yl)methoxy)-4-(piperazin-1-yl)quinazolin-7-yl)-7-fluorobenzo[d]thiazol-2-amine], for which the IC50 in test [1] and in test [2] was 1 to 10 µM in each case.

For the compound `CN(c1nc(OCC23CCCN2CCC3)nc2c(F)c(-c3ccc(F)c4sc(N)nc34)c(C(F)(F)F)cc12)[C@@H]1CCN(C(=O)CN)C1` (atropisomer, axis not shown) [Compound 277], the concentration for half-maximal inhibition (IC50) in test [1] and in test [2] was 1 to 10 µM each time.

For `CN(c1nc(OCC23CCCN2CCC3)nc2c(F)c(-c3ccc(F)c4sc(N)nc34)c(Cl)cc12)C1CN(C(=O)CN)C1` [Compound 164], the IC50 in test [1] and in test [2] was 10 to 30 µM each time.

Turning to `CN(c1nc(OCC23CCCN2CCC3)nc2c(F)c(-c3ccc(F)c4sc(N)nc34)c(-c3ccoc3)cc12)C1CN(C(N)=O)C1` [Compound 151], the half-maximal inhibitory concentration (IC50) in test [1] lay within 1 to 10 µM; in test [2], 10 to 30 µM.

For `CN(c1nc(OCC23CCCN2CCC3)nc2c(F)c(-c3ccc(F)c4sc(N)nc34)c(-c3ccoc3)cc12)C1CN(C(=O)CN)C1` [Compound 163], the 50% inhibitory concentration (IC50) in test [1] and in test [2] was 10 to 30 µM each time.

With `CN1CCC[C@H]1COc1nc(N2CCN(C(=O)CN)CC2)c2cc(Cl)c(-c3ccc(F)c4sc(N)nc34)c(F)c2n1` [Compound 108], the IC50 in test [1] and in test [2] was 10 to 30 µM each time.

`CC(=O)NCCNc1nc(OC[C@@H]2CCCN2C)nc2c(F)c(-c3ccc(F)c4sc(N)nc34)c(Cl)cc12` [Compound 76]: the IC50 in test [1] and in test [2] was 10 to 30 µM throughout.

For the compound `CN1CCC[C@H]1COc1nc(N(CCC#N)C2CN(C(=O)CN)C2)c2cc(Cl)c(-c3ccc(F)c4sc(N)nc34)c(F)c2n1` [Compound 183], the half-inhibitory concentration (IC50) in test [1] and in test [2] was 10 to 30 µM throughout.

As to `Nc1nc2c(-c3c(Cl)cc4c(NC5CNC5)nc(OCC56CCCN5CCC6)nc4c3F)ccc(F)c2o1` [Compound 192], the IC50 in test [1] and in test [2] was 1 to 10 µM each time.

With `Nc1nc2c(-c3c(C(F)(F)F)cc4c(N[C@H]5C[C@@H]6CC[C@H]5N6)nc(OCC56CCCN5CCC6)nc4c3F)ccc(F)c2s1` (atropisomer, axis not shown) [Compound 287], the concentration for half-maximal inhibition (IC50) in test [1] and in test [2] was 1 to 10 µM each time.

Regarding `CN1C[C@H](F)C[C@H]1COc1nc(NC2CNC2)c2cc(C(F)(F)F)c(-c3ccc(F)c4sc(N)nc34)c(F)c2n1` [Compound 119], the IC50 in test [1] and in test [2] was 1 to 10 µM in each case.

In the case of `CC(C)N(c1nc(OC[C@@H]2CCCN2C)nc2c(F)c(-c3ccc(F)c4sc(N)nc34)c(Cl)cc12)C1CNC1` [Compound 180], the IC50 in test [1] and in test [2] was 10 to 30 µM in each case.

Turning to `C#Cc1cc2c(N3CCNCC3)ncnc2c(F)c1-c1ccc(F)c2sc(N)nc12` [Compound 66, 4-(6-ethynyl-8-fluoro-4-(piperazin-1-yl)quinazolin-7-yl)-7-fluorobenzo[d]thiazol-2-amine], the concentration for half-maximal inhibition (IC50) in test [1] and in test [2] was 10 to 30 µM throughout.

Turning to `CN(c1nc(OCC23CCCN2CCC3)nc2c(F)c(-c3ccc(F)c4sc(N)nc34)c(Cl)cc12)C1CN(C(N)=O)C1` [Compound 182], the 50% inhibitory concentration (IC50) fell in the range of 1 to 10 µM in test [1] and 10 to 30 µM in test [2].

With `CN1CCC[C@H]1COc1nc(N2CCN(C(=O)CN)CC2)c2cc(C(F)(F)F)c(-c3ccc(F)c4sc(N)nc34)c(F)c2n1` [Compound 116], the IC50 in test [1] and in test [2] was 1 to 10 µM throughout.

Turning to `NCC(=O)N1CCN(c2nc(OC[C@]34CCCN3C[C@H](F)C4)nc3c(F)c(-c4ccc(F)c5sc(N)nc45)c(C(F)(F)F)cc23)CC1` [Compound 181], the concentration for half-maximal inhibition (IC50) in test [1] and in test [2] was 1 to 10 µM throughout.

On to `CN1CCC[C@H]1COc1nc(NC2CCCNC2)c2cc(Cl)c(-c3ccc(F)c4sc(N)nc34)c(F)c2n1` (some centres unmarked) [Compound 99], for which the IC50 in test [1] is 1 to 10 µM; in test [2], 10 to 30 µM.

Turning to `Nc1nc2c(-c3c(C(F)(F)F)cc4c(N5CCNCC5)nc(OCC56CCCN5CC(F)(F)C6)nc4c3F)ccc(F)c2s1` (centres unmarked) [Compound 211], the results for the IC50 in test [1] and in test [2] were 1 to 10 µM and 10 to 30 µM, respectively.

For the compound `CN(c1nc(OCC23CCCN2CCC3)nc2c(F)c(-c3ccc(F)c4sc(N)nc34)c(C(F)(F)F)cc12)C1CCNCC1` [Compound 280], the IC50 in test [1] and in test [2] was 1 to 10 µM each time.

As for `Nc1nc2c(-c3c(C(F)F)cc4c(N5CCNCC5)nc(OCC56CCCN5CCC6)nc4c3F)ccc(F)c2s1` [Compound 227], the concentration for half-maximal inhibition (IC50) in test [1] and in test [2] was 1 to 10 µM in each case.

Regarding `NC(=O)N1CCN(c2nc(OCC34CCCN3CCC4)nc3c(F)c(-c4ccc(F)c5sc(N)nc45)c(-c4ccoc4)cc23)CC1` [Compound 186], the IC50 in test [1] and in test [2] was 10 to 30 µM throughout.

Consider `C[C@@H]1CN(c2nc(OC[C@@]34CCCN3C[C@H](F)C4)nc3c(F)c(-c4ccc(F)c5sc(N)nc45)c(C(F)F)cc23)[C@@H](C)CN1` [Compound 302], for which the half-inhibitory concentration (IC50) in test [1] and in test [2] was 1 to 10 µM each time.

As to `NC(=O)N1C2CCC1CN(c1nc(OC[C@@]34CCCN3C[C@H](F)C4)nc3c(F)c(-c4ccc(F)c5sc(N)nc45)c(C(F)(F)F)cc13)C2` [Compound 273], the half-inhibitory concentration (IC50) in test [1] and in test [2] was 1 to 10 µM throughout.

Turning to `CN1CCC[C@H]1COc1nc(NC2CN(C(=O)CN)C2)c2cc(Cl)c(-c3ccc(F)c4sc(N)nc34)c(F)c2n1` [Compound 97], the IC50 in test [1] is 1 to 10 µM; in test [2] it was 10 to 30 µM.

Take `Nc1nc2c(-c3c(Cl)cc4c(N5CCNCC5)nc(OCC56CCCN5CCC6)nc4c3F)ccc(F)c2s1` [Compound 82]: the IC50 in test [1] and in test [2] was 1 to 10 µM each time.

As to `Nc1nc2c(-c3c(C(F)(F)F)cc4c(NC5CC6CC[C@H]5N6)nc(OCC56CCCN5CCC6)nc4c3F)ccc(F)c2s1` (some centres unmarked) [Compound 266], the IC50 in test [1] lay in the range of 0.1 to 1 µM; in test [2], 1 to 10 µM.

For `CN1CCC[C@H]1COc1nc(N2CCN(C(=O)CN)CC2)c2cc(-c3ccoc3)c(-c3ccc(F)c4sc(N)nc34)c(F)c2n1` [Compound 144, 2-amino-1-(4-(7-(2-amino-7-fluorobenzo[d]thiazol-4-yl)-8-fluoro-6-(furan-3-yl)-2-(((S)-1-methylpyrrolidin-2-yl)methoxy)quinazolin-4-yl)piperazin-1-yl)ethan-1-one], the concentration for half-maximal inhibition (IC50) in test [1] and in test [2] was 10 to 30 µM in each case.

Regarding `C[C@@H]1CN(c2nc(OC[C@@]34CCCN3C[C@@H](F)C4)nc3c(F)c(-c4ccc(F)c5sc(N)nc45)c(C(F)(F)F)cc23)[C@@H](C)CN1` [Compound 224], the IC50 in test [1] and in test [2] was 10 to 30 µM throughout.
